We go through 7 compounds from US20250188082A1, “Use of Hypoxanthine Compound In Preparation of Drug For Treating Pulmonary Fibrosis” (Sichuan Yiasuo Pharmaceutical Technology Co., Ltd., priority 2022, published 2025).

Common to all, as to assay type: in vivo, C57BL/6 mice
The test system of assay [1] is bleomycin-induced pulmonary fibrosis model. Kind of assay: Advanced pulmonary fibrosis: bleomycin-induced model, dosing from three weeks after modelling. The note with it: advanced pulmonary fibrosis, 120 mg/kg/d intragastric, 14 days, from three weeks after model; for Leucocyte / Lymphocyte / Neutrophil: blood, Day 15, twice every day; for Ashcroft scores: lung tissue HE staining.

Assay [2] deals with mycoplasma-induced pulmonary fibrosis model (MPFH strain). Nature of the assay: Mycoplasma-induced pulmonary fibrosis model. The note with it: 120 mg/kg/d intragastric, 14 days; for Leucocyte / Lymphocyte / Neutrophil: MPFH mycoplasma + bleomycin, once a day, from two weeks after model; for Ashcroft scores: mycoplasma + bleomycin, lung tissue HE. The text has this: Experimental method: an in-vivo mycoplasma-induced pulmonary fibrosis model was established: C57BL/6 mice (with weights being 22-25 g) were randomly and evenly divided into a plurality of groups, including blank control group, model group, Nintedanib positive control group, hypoxanthine analogue A group, hypoxanthine analogue B group, hypoxanthine analogue C group, compound 1 group, compound 2 group . . . compound 12 group, with 9 mice in each group. Before a model was established, the mice were anesthetized with diethyl ether. In addition to that the mice in blank control group with instilled with 100 μL of normal saline nasally, the mice in other groups with slowly instilled with an equal volume of a MPFH strain solution (containing 1×10^7 mL^−1 MPFH strain) to the nasal cavity, for consecutive 3 days, and inhaled the MPFH strain solution into bronchi. After instillation with mycoplasmas through tracheas, the mice received 5 mg/kg bleomycin through tracheas to induce their pulmonary fibrosis. After the model was established for two weeks, the mice in each group were intragastrically administrated for intervention for consecutive 14 days; the mice in blank control group and model group intragastrically received an equal dosage of normal saline as those in drug groups; the mice in Nintedanib positive control group received Nintedanib (120 mg/kg); the mice in hypoxanthine analogue A group, hypoxanthine analogue B group and hypoxanthine analogue C group respectively received hypoxanthine analogue A (120 mg/kg/d), hypoxanthine analogue B (120 mg/kg/d) and hypoxanthine analogue C (120 mg/kg/d); and the mice in compound 1 group, compound 2 group . . . compound 12 group respectively received compound 1 (120 mg/kg/d), compound 2 (120 mg/kg/d) . . . compound 12 (120 mg/kg/d) prepared in example 1. The mice were administrated once a day to be treated for consecutive 14 days. The mice were observed every day, and their weights and death conditions were recorded. On the last day of administration, the mice were sacrificed; and blood was taken from eyeballs and kept at −80° C. for detecting blood routine indexes. Meanwhile, lungs were lavaged with normal saline and separated to collect lavage fluids for detecting counts and classes of leucocytes; and lung tissues were taken for HE straining and Ashcroft scoring on the extent of pulmonary fibrosis.

The subject of assay [3] is Streptococcus pneumoniae-induced pulmonary fibrosis model. Nature of the assay: Streptococcus pneumoniae-induced pulmonary fibrosis model. The settings on record: Streptococcus pneumoniae + bleomycin, 120 mg/kg/d intragastric, 14 days; for Leucocyte / Lymphocyte / Neutrophil: blood, Day 15, 3 times every day, from one week after model; for Ashcroft scores: lung tissue HE staining.

Assay [4] deals with influenza A virus-induced pulmonary fibrosis model (FM1 strain of influenza A (H1N1) virus). Kind of assay: Influenza A virus-induced pulmonary fibrosis model. The settings on record: 120 mg/kg/d intragastric, 14 days; for Ashcroft scores: influenza A virus + bleomycin, lung tissue HE; for IL-1β / IL-6 / NF-κB / TNF-α: serum, influenza A (H1N1) FM1 + bleomycin, from two weeks after model. The text has this:
Experimental method: an in-vivo influenza A virus-induced pulmonary fibrosis model was established: C57BL/6 mice (with weights being 22-25 g) were randomly and evenly divided into a plurality of groups, including blank control group, model group, Nintedanib positive control group, hypoxanthine analogue A group, hypoxanthine analogue B group, hypoxanthine analogue C group, compound 1 group, compound 2 group . . . compound 12 group, with 9 mice in each group. On Day 1, the mice in blank control group were instilled with normal saline nasally, and the mice in other groups were all infected with a FM1 strain of an influenza A (H1N1) virus 30 (μL) through nasal instillation. On Day 2, the mice received 5 mg/kg bleomycin through tracheas to induce their pulmonary fibrosis. After the model was established for two weeks, the mice in each group were intragastrically administrated for intervention for consecutive 14 days; the mice in blank control group and model group intragastrically received the same dosage of the normal saline as those in drug groups; the mice in Nintedanib positive control group received Nintedanib (120 mg/kg); the mice in hypoxanthine analogue A group, hypoxanthine analogue B group and hypoxanthine analogue C group respectively received hypoxanthine analogue A (120 mg/kg/d), hypoxanthine analogue B (120 mg/kg/d) and hypoxanthine analogue C (120 mg/kg/d); and the mice in compound 1 group, compound 2 group . . . compound 12 group respectively received compound 1 (120 mg/kg/d), compound 2 (120 mg/kg/d) . . . compound 12 (120 mg/kg/d) prepared in example 1. After administration for consecutive 14 days, the mice were observed every day, and their weights and death conditions were recorded. After administration, blood was taken from eyeballs for immediately detecting the expression levels of NF-κB, TNF-α, IL-1 and IL-6 in serum, and lung tissues were taken for HE detection and Ashcroft scoring.

For the compound `CC(C)Oc1ncnc2[nH]cnc12` [Compound 1], in assay [1], the Leucocyte is recorded as 4.28 10^9/L, the Lymphocyte is on record as 5.33 10^9/L, the Neutrophil is on record as 1.37 10^9/L and the Ashcroft scores was 0.95. Moreover, in assay [2], the Leucocyte was 7.01 10^9/L, the Lymphocyte is on record as 72.56 10^9/L, the Neutrophil is listed as 21.01 10^9/L and the Ashcroft scores worked out at 1.12. Further, in assay [3], the Leucocyte was 5.52 10^9/L, the Lymphocyte is listed as 5.99 10^9/L, the Neutrophil was 2.00 10^9/L and the Ashcroft scores was determined as 1.20. For the same compound, in assay [4], the Ashcroft scores is 1.21, the IL-1β turned out to be 28.8 pg/mL, the IL-6 was found to be 63.9 pg/mL and the NF-κB is 26.5 pg/mL. In addition, the TNF-α in assay [4] is on record as 87.1 pg/mL.

On to `CC(C)n1cnc2c(=O)[nH]cnc21` [Compound 2], for which, in assay [1], the Leucocyte is recorded as 4.16 10^9/L, the Lymphocyte is on record as 5.29 10^9/L, the Neutrophil is recorded as 1.26 10^9/L and the Ashcroft scores turned out to be 0.88. Besides, in assay [2], the Leucocyte is 6.42 10^9/L, the Lymphocyte was 72.69 10^9/L, the Neutrophil was 21.93 10^9/L and the Ashcroft scores is 1.20. In assay [3], the Leucocyte is recorded as 5.48 10^9/L, the Lymphocyte is on record as 5.95 10^9/L, the Neutrophil is 1.83 10^9/L and the Ashcroft scores was determined as 1.09. Moreover, in assay [4], the Ashcroft scores is 1.25, the IL-1β is recorded as 27.1 pg/mL, the IL-6 is recorded as 62.7 pg/mL and the NF-κB is listed as 25.5 pg/mL. Besides, the TNF-α in assay [4] worked out at 87.3 pg/mL.

For the compound `CC(C)Oc1ncnc2c1ncn2C(C)C` [Compound 3], in assay [1], the Leucocyte is 3.98 10^9/L, the Lymphocyte is listed as 5.18 10^9/L, the Neutrophil was 1.19 10^9/L and the Ashcroft scores worked out at 0.87. Moreover, in assay [2], the Leucocyte was 6.83 10^9/L, the Lymphocyte is 72.33 10^9/L, the Neutrophil is given as 22.12 10^9/L and the Ashcroft scores is reported as 0.96. Moreover, in assay [3], the Leucocyte was 5.62 10^9/L, the Lymphocyte is 5.77 10^9/L, the Neutrophil is 1.60 10^9/L and the Ashcroft scores stood at 1.01. Also, in assay [4], the Ashcroft scores is 1.18, the IL-1β amounted to 26.3 pg/mL, the IL-6 worked out at 62.9 pg/mL and the NF-κB was found to be 24.3 pg/mL. For the same compound, the TNF-α in assay [4] worked out at 86.1 pg/mL.

In the case of `CC(C)Oc1ncnc2ncn(C(C)C)c12` [Compound 4], in assay [1], the Leucocyte is recorded as 4.26 10^9/L, the Lymphocyte is given as 5.63 10^9/L, the Neutrophil was 1.34 10^9/L and the Ashcroft scores was determined as 1.24. For the same compound, in assay [2], the Leucocyte was 6.79 10^9/L, the Lymphocyte is given as 73.37 10^9/L, the Neutrophil was 22.54 10^9/L and the Ashcroft scores was 1.05. In addition, in assay [3], the Leucocyte is on record as 6.99 10^9/L, the Lymphocyte is recorded as 6.84 10^9/L, the Neutrophil is on record as 1.51 10^9/L and the Ashcroft scores stood at 1.29. Moreover, in assay [4], the Ashcroft scores was determined as 1.29, the IL-1β amounted to 29.6 pg/mL, the IL-6 is 65.1 pg/mL and the NF-κB is given as 27.4 pg/mL. Also, the TNF-α in assay [4] is on record as 89.8 pg/mL.

As for `CC(C)Oc1ncnc2nc[nH]c12` [Compound 5], in assay [1], the Leucocyte is 4.34 10^9/L, the Lymphocyte is recorded as 5.74 10^9/L, the Neutrophil is on record as 1.36 10^9/L and the Ashcroft scores was 1.22. Besides, in assay [2], the Leucocyte was 6.86 10^9/L, the Lymphocyte is given as 74.39 10^9/L, the Neutrophil is listed as 21.91 10^9/L and the Ashcroft scores came to 1.23. In assay [3], the Leucocyte is reported as 6.75 10^9/L, the Lymphocyte is given as 7.64 10^9/L, the Neutrophil was 1.82 10^9/L and the Ashcroft scores came to 1.25. Also, in assay [4], the IL-1β amounted to 28.1 pg/mL, the IL-6 was 65.6 pg/mL, the NF-κB is recorded as 27.7 pg/mL and the TNF-α is given as 90.2 pg/mL.

With `CC(C)n1cnc2nc[nH]c(=O)c21` [Compound 6], in assay [1], the Leucocyte was 4.58 10^9/L, the Lymphocyte is 5.94 10^9/L, the Neutrophil was 1.59 10^9/L and the Ashcroft scores came to 1.19. Further, in assay [2], the Leucocyte is reported as 6.05 10^9/L, the Lymphocyte is reported as 71.57 10^9/L, the Neutrophil is given as 22.72 10^9/L and the Ashcroft scores stood at 1.17. In assay [3], the Leucocyte is 5.91 10^9/L, the Lymphocyte was 7.55 10^9/L, the Neutrophil is recorded as 1.88 10^9/L and the Ashcroft scores came to 1.27. Also, in assay [4], the Ashcroft scores is given as 1.26, the IL-1β is 28.5 pg/mL, the IL-6 was determined as 66.1 pg/mL and the NF-κB stood at 27.8 pg/mL. Also, in assay [4], the TNF-α is 90.3 pg/mL.

As for `COc1ncnc2c1ncn2C(C)C` [Compound 7], in assay [1] (120 mg/kg/day), the Leucocyte is reported as 4.61 10^9/L, the Lymphocyte is reported as 5.65 10^9/L, the Neutrophil is on record as 1.44 10^9/L and the Ashcroft scores came to 1.13. For the same compound, in assay [2], the Leucocyte is recorded as 7.15 10^9/L, the Lymphocyte is on record as 73.29 10^9/L, the Neutrophil is given as 21.45 10^9/L and the Ashcroft scores worked out at 1.25. For the same compound, in assay [3] (120 mg/kg/day), the Leucocyte is listed as 6.39 10^9/L, the Lymphocyte is 7.72 10^9/L, the Neutrophil is listed as 1.88 10^9/L and the Ashcroft scores amounted to 1.29. Besides, in assay [4], the Ashcroft scores is listed as 1.28, the IL-1β worked out at 29.0 pg/mL, the IL-6 stood at 65.3 pg/mL and the NF-κB turned out to be 26.4 pg/mL. In addition, the TNF-α in assay [4] was 91.2 pg/mL.
